Measurements: US10172789B2, “Compositions for transdermal delivery of mTOR inhibitors” (PALVELLA THERAPEUTICS LLC, priority 2013, dated 2019)
Entries after “also recorded” stand apart in the source; their conditions may differ.

Experiments:
[1] = system: ribosomal protein S6 phosphorylation; assay: S6 phosphorylation (P-S6) western blot in human HaCaT keratinocytes; assay type: cell-based
Method: (§1) FIGS. 1C-F show immunochemistry […] images of frozen skin sections taken from mice treated with the same creams as FIG. 1B.
(§2) To evaluate whether benzyl alcohol has deleterious effects on rapamycin activity, rapamycin was dissolved in benzyl alcohol (and compared with other solvents as indicated) and evaluated for its ability to block phosphorylation of ribosomal protein S6, a commonly used method to assess mTOR pathway inhibition by rapamycin, in human HaCaT and patient-derived keratinocytes. […] In the assays described below, a P-S6-specific antibody recognizes only the phosphorylated form of S6 whereas the other antibody recognizes total S6 protein (i.e., both P-S6 and unphosphorylated S6). […] The inhibition of phospho-S6 was observed by both western blot analysis of protein extracts from treated mouse skin (FIG. 1B) and by immunohistochemistry (IHC) of frozen sections prepared from treated mouse skin (FIG. 1C-F).
Next-generation mTOR inhibitors have similar effects on ribosomal protein S6-phosphoylation (p-S6) when compared to rapamycin. […] The p-S6 levels were quantified and the ratio of p-S6 to total S6 (total S6 data not shown) was graphed in FIG. 2B in similar fashion to FIG. 1.

[2] = system: ribosomal protein S6 phosphorylation; assay: S6 phosphorylation in mouse skin after topical formulation (western blot, IHC); assay type: in vivo; settings: mouse skin including ears, topical formulation with rapamycin dissolved in benzyl alcohol; western blot and IHC
Method: as §1, §2

[3] = system: mouse skin; assay: Gross examination of topically-treated mouse ears, flanks and footpads; assay type: in vivo; settings: flanks and footpads vs untreated or placebo-treated skin, data not shown
[4] = Rapamycin distribution in human explant skin after topical application (reverse-phase HPLC); assay type: in vitro ADME
Method: Rapamycin extracted from the indicated tissue slices was assayed by reverse-phase HPLC. The tissue surface was cleaned with isopropyl alcohol prior to sectioning to remove any residual surface material.
To test delivery of rapamycin from a formulation similar to that disclosed in Example 2, the formulation was applied to explant human skin.

CO[C@H]1C[C@@H]2CC[C@@H](C)[C@@](O)(O2)C(=O)C(=O)N2CCCC[C@H]2C(=O)O[C@H]([C@H](C)C[C@@H]2CC[C@@H](O)[C@H](OC)C2)CC(=O)[C@H](C)/C=C(\C)[C@@H](O)[C@@H](OC)C(=O)[C@H](C)C[C@H](C)/C=C/C=C/C=C/1C [rapamycin]
effect on total S6 protein levels ([1]; rapamycin dissolved in benzyl alcohol or other solvents): little or no effect | inhibition of ribosomal protein S6 phosphorylation (P-S6) ([1]; rapamycin dissolved in benzyl alcohol, DMSO, ethanol or diglycol, FIG. 1A): efficiently inhibits | S6 phosphorylation relative to total S6 protein [2]: inhibited | skin irritation on gross examination [3]: little or no irritation | net deposition of rapamycin within the skin ([4]; 16 hours after application of rapamycin formulation): > 4 % of the applied dose | rapamycin concentrations within the epidermis (and dermis) ([4]; 16 hours after topical application, formulation similar to Example 2, compared with level needed to inhibit S6 phosphorylation in cell culture): many fold higher than required for in vitro activity; also recorded: well above the IC50 value
